Data published in patent US20100210575A1, “STRUCTURING EFFECT OF CHOLESTEROL IN PEG-PHOSPHOLIPID MICELLES, DRUG DELIVERY OF AMPHOTERICIN B, AND COMBINATION ANTIFUNGALS” (WISCONSIN ALUMNI RESEARCH FOUNDATION, priority 2007, published 2010).

Assays:
[1] = test system: C. albicans 98-17; assay: In vitro susceptibility, broth microdilution (MIC, median-effect fit); type: cell-based; conditions: Candida albicans, 9817, strain 98-17
Protocol: (§1) C. albicans 98-17 and C. albicans 98-234 were maintained on SDA plates. Susceptibility of yeast isolates was performed using broth microdilution in RPMI-1640 (supplemented with 0.165 M morpholinepropanesulfonic acid, buffered to pH 7.0) according to procedures recommended in NCCLS M27-A2 (25). Test drug solutions were incubated with yeast inoculum at 35° C. in 96-well plates for a 24 h period. All measurements were done in triplicate. Percent yeast growth relative to drug-free control was determined by measuring optical density (OD) at 650 nm, using the Microplate EL 312e plate reader. […] The MIC values were expressed as a mean of three determinations.
(§2) Calculation of a combination index was done in two steps. First, inhibition of fungal growth in response to varying concentrations of single-drug was fit to median-effect function:
(§3) where fa is the mean growth inhibition, relative to drug-free control, Dm is the drug concentration for a 50% growth inhibition, and m is the slope-factor describing the dose-response curve. Parameter Dm and m for each drug were estimated by non-linear regression using SigmaPlot (v. 9.0).

[2] = test system: C. albicans 98-234; assay: as above; type: cell-based; conditions: Candida albicans, 98234, strain 98-234
Protocol: as §1, §2, §3

[3] = test system: C. albicans 98-17 and C. albicans 98-234; assay: In vitro susceptibility, broth microdilution, both isolates; type: cell-based; conditions: Candida albicans
Protocol: as §1, §2, §3

[4] = AmB release from PEG-DSPE micelles using equilibrium dialysis; type: physicochemical; conditions: 25° C., 30 μg/mL AmB
Protocol: AmB release from PEG-DSPE micelles using equilibrium dialysis. AmB stock solutions (micelle encapsulated or dissolved in DMSO) were diluted to 30 μg/mL in HEPES buffer or in 4% BSA. These solutions were put in dialysis cassettes (MWCO 7000 g/mol, Pierce) and were placed in excess buffer (5 mM HEPES, pH 7.0). The MWCO of the dialysis membrane was chosen to allow for diffusion of AmB (molecular weight 924.1) while retaining large molecules such as bovine serum albumin (molecular weight 66 kDa) and intact micelles (molecular weight >100 kDa). Near-sink conditions for AmB were maintained by performing the release experiment in a 100-fold excess dialysis buffer. Because AmB is susceptible to degradation, the dialysis buffer was degassed overnight and 20 μg/mL propyl gallate was added as an antioxidant (15, 16). At predetermined time intervals, 100 μL samples were taken and AmB concentration in dialysis cassettes was determined using reversed-phase HPLC. […]
AmB release was fit to a first-order process of the form At/A0=a.e^−k.t by non-linear regression (SigmaPlot v.9.0). […] The half-life t1/2 for AmB release was calculated using t1/2=0.693/k.
For determination of AmB content, 15 μL samples were injected into 4.6 mm×150 mm Eclipse XDB-C8 reversed-phase column (Agilent Technologies) and AmB absorbance detected at 412 nm using the diode array detector. […]

[5] = Critical aggregation concentration (CAC) of AmB; type: physicochemical
[6] = biological target: 4% BSA (Bos taurus, UniProt P02769); assay: Electronic absorption kinetics at 412 nm upon dilution in serum albumin; type: physicochemical, bovine; conditions: AmB 10 μg/mL
Protocol: Electronic absorption kinetics. Stock solutions containing AmB (micelle encapsulated or dissolved in DMSO) were added to 4% BSA, buffered to pH 7.0 with 10 mM HEPES. The final concentration of AmB was 10 μg/mL. For AmB dissolved in DMSO, the final DMSO content was less than 0.2%. Absorbance spectra were recorded from 300 to 450 nm at room temperature by using the Cary 50 spectrophotometer (Varian, Palo Alto, Calif.). Sequential spectra were acquired at 15 second intervals for the first 5 min; and at 1 minute intervals for an additional 40 minutes. A scan for baseline absorbance was taken before addition of AmB and was subtracted from each spectrum. The change in absorbance at 412 nm, […] was fit to a first-order process of the form A∞−At=a.e^−k.t using non-linear regression (SigmaPlot v.9.0).

[7] = >95% inhibition, 24 h, 35° C., read-out: Minimum Inhibitory Concentrations (MIC)
[8] = median-effect fit, read-out: Dm × 10^3 (concentration for 50% growth inhibition)

4% BSA, sequence (P02769 25-607): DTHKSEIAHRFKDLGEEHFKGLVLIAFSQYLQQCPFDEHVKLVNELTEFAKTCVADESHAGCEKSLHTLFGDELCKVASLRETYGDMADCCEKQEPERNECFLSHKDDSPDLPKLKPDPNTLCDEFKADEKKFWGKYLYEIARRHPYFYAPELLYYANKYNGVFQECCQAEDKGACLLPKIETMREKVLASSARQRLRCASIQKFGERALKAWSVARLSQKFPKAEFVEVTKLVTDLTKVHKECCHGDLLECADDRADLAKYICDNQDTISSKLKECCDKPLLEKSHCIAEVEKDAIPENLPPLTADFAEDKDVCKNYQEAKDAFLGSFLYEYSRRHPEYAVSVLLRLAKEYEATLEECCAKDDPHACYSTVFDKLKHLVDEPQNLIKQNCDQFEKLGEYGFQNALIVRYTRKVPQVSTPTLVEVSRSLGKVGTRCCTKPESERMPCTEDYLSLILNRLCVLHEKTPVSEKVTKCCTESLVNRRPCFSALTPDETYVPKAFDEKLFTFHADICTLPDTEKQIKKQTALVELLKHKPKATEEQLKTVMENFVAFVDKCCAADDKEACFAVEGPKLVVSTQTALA

MIC [1, 7] [µg/mL]	IC50 [1, 8] [µg/mL]	MIC [2, 7] [µg/mL]	IC50 [2, 8] [µg/mL]	MIC ([3]; both isolates, 24 h) [µg/mL]	IC50 ([3]; range over isolates, read-out: Dm) [µg/mL]	CAC ([5]; in 4% BSA) [µM]	CAC ([5]; in HEPES) [μMA]	A∞ (absorbance at 412 nm) [6]	100 k (absorbance change at 412 nm) ([6]; room temperature) [min⁻¹]	Structure (SMILES)	100 · k (AmB release, first-order fit) ([4]; 5 mM HEPES) [h⁻¹]	100 · k (AmB release, first-order fit) ([4]; 4% BSA) [h⁻¹]
0.1	70.7 ± 7.3	0.1	39.8 ± 0.1	0.1	0.04 to 0.07	–	–	–	–	Nc1nc(=O)[nH]cc1F [5-FC, 5-fluorocytosine]	–	–
–	–	–	–	–	–	10	1	0.77	3.25 ± 0.23	C[C@@H]1[C@H](O)[C@@H](C)/C=C/C=C/C=C/C=C/C=C/C=C/C=C/[C@H](O[C@@H]2O[C@H](C)[C@@H](O)[C@H](N)[C@@H]2O)C[C@@H]2O[C@](O)(C[C@@H](O)C[C@@H](O)[C@H](O)CC[C@@H](O)C[C@@H](O)CC(=O)O[C@H]1C)C[C@H](O)[C@H]2C(=O)O [Free AmB, Amphotericin B]	1.01 ± 0.10	3.72 ± 0.04
